Test results reported in PMC10597491 (PLOS ONE, 2023).
pIC50: −log10 of the molar value. Bridge positions count the residues as written; N and C are the ends. Ends that are not written are not given here.

Legend:
human IL-7Rα ECD = biological target: T1, human IL-7Rα ECD (Homo sapiens, UniProt P16871); assay: Competition binding ELISA, human IL-7Rα ECD; settings: immobilized IL-7Rα-(His)6 ECD; tracer biotinylated MDK1248 pre-complexed with Neutravidin-HRP; 4°C; valency-sensitive format
T1 construct: IL-7Rα(aa 21–236)-His6, Sino Biological Cat# 10975-H08H; His6 (C); purchased Sino Biological 10975-H08H
T1 sequence (P16871 21-236): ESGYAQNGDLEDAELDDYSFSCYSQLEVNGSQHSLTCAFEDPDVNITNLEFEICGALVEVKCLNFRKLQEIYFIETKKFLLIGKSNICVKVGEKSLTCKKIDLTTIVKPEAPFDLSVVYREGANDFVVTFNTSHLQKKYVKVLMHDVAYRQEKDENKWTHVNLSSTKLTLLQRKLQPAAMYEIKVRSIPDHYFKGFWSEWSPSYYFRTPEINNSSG
Excerpt: (A, B) Determination of IC50 values in a competition ELISA for compound binding to human and cyno IL-7Rα and γc. The assay format is IL-7Rα-(His)6-tagged ECD or Fc-γc ECD immobilized on 96-well plates. Tracers are C-terminal biotinylated forms of the reference IL-7Rα and γc peptide ligands, each pre-complexed with Neutravidin-HRP (NA-HRP). (C, D) Label-free measurement of the equilibrium dissociation constant (KD) for peptide binding to IL-7Rα and γc extracellular domains with peptides was performed by biolayer interferometry as detailed in methods. Red lines depict 1:1 binding fit from Gator™ software. Blue lines represent individual BLI sensogram data taken every 0.1 seconds.
Binding was determined using a competition binding ELISA. Microtiter plates (Immulon 4HBX flat bottom 96-well) were coated with 50 μL of […] human ECDs: IL-7Rα(aa 21–236)-His6, Sino Biological Cat# 10975-H08H; cynomolgus IL-7Rα(aa 21–235)-His6, Sino Biological Cat# 90332-C08H; human IL-2Rα(aa 23–254)-Fc, Acro Cat# ILG-H5256; cynomolgus IL-2Rα(aa 23–254)-Fc, made in-house, in PBS overnight at 4°C. […] Plates were washed with cold wash buffer, and bound tracer was detected using TMB One Component HRP substrate and Stop Solution (Surmodics Cat# TMBW-1000-01 and LSTP-0100-01). Absorbance at 450 nm was read using Agilent BioTek Synergy HTX Multimode Reader.

[1] = Plasma stability in vitro, human plasma; format: in vitro ADME; parameters: dose or concentration left out as unconfirmed; settings: 37°C, incubated in duplicate, intact peptide by LC/MS/MS, read-out: t1/2 in human plasma (converted)
Excerpt: Affinity maturation of these initial families produced ligands with improved affinities; and combinations of these ligands (one each for IL-7Rα and γc) were joined into heterodimers in a variety of orientations (i.e., joined by N-termini, C-termini, or N-to-C termini), with several connection chemistries, for testing as IL-7R agonists in cell-based assays. The lead peptide agonist for detailed characterization, as described here, is a fusion of peptides MDK1248 and MDK1188, joined with a short intervening linker to form the single-chain peptide MDK1472. The peptides were analyzed for sequence similarity to IL-7, and none was found.
Supplementary file pone.0286834.s001.pptx: S1 Fig Plasma stability of MDK 1472 in vitro. […] MDK1472 or control peptide YGGFL incubated in duplicate in human or cynomolgus plasma at 37°C. At indicated time points, compounds were isolated from the plasma and the quantity of intact peptides measured by LC/MS/MS (Study performed by Quintara Discovery, Hayward, CA). (PPTX) Click here for additional data file.

human PBMCs = assay: Proliferation and expansion of PBMC subpopulations in culture; format: cell-based
Excerpt: An essential feature of IL-7-mediated homeostatic lymphoid maintenance is the proliferation of naive T-cells, expanding both recent thymic emigrants and circulating TN clones to sustain the population and preserve a diverse TCR repertoire in the naive T-cell compartment. […] In the CD8+ population, Ki-67+ frequency reached a peak by day 7, declining slightly by day 16. […] The high Ki-67 background in untreated samples of Treg and NK cells may indicate a high basal turnover rate of these cell types in culture.
Data are shown as mean ± SEM. Flow cytometry gating data shown in S2 Fig.
On days 3, 7, 16, and 30, cell aliquots were taken and analyzed by flow cytometry of CD8+ T naïve and memory populations. (A) Schematic of the putative differentiation pathway of the memory T cell compartment. (B) differential gating of naïve and early memory (Tscm) subpopulations. (C) Cell counts of treated and untreated memory subpopulations over time. (D) Stacked bar representation of changes in total memory T cell subpopulations over time. […] Data are shown as mean ± SEM. Detailed gating information is provided in S4 Fig.
Frozen human PBMCs from 5 healthy donors (Stemcell Technologies, Cat# 70025.2, Lot numbers 2108409012, 2109407009, 210680104C, 210680801C, 211280501C, 220781802C) were thawed and rested overnight at 37°C, 5% CO2 in CTS™ OpTmizer™ T-Cell Expansion SFM (ThermoFisher Scientific Cat# A1048501). […] At indicated time points, cell aliquots were taken, and cell surface staining was performed using antibodies shown in S3 Table followed by viability dye staining. For Ki-67 and FoxP3 staining, surfaced stained cells were fixed and permeabilized according to the manufacturer’s instructions and analyzed immediately using the Novocyte Advanteon instrument (Agilent). The data were analyzed using FlowJo software. Fluorescence Minus One (FMO) controls were used to draw gates. Percentages of Ki-67+ cell populations were expressed as average ± SEM. Memory T-cells are as follows: Tn (CD45RA+CCR7+CD28+CD95-), Tscm (CD45RA+CCR7+CD28+CD95+), Tem (CD45RA-CCR7-), Tcm (CD45RA-CCR7+), and Temra (CD45RA+CCR7-). To count cells per well, at each assay time point 50 μL of the cells were taken from each well and incubated with 200 μL of the viability dye solution. The NovoCyte Advanteon flow cytometer was set to analyze precisely 50 μL ([…] original culture volume), which allowed the calculation of the absolute live cell counts. Because the culture volumes change over time due to splitting and removal, dilution factors were considered when calculating the total number of cells.

Row | Substance | pIC50 (human IL-7Rα ECD) | half-life [1] [h] | CD4+ and CD8+ maximal counts over day 1 baseline (human PBMCs; between days 7 and 16) [fold] | CD8+ Tscm cell number increase (human PBMCs; day 30, 100 nM MDK-703 or 1 nM IL-7, untreated 5-fold) [fold] | CD8+ T-cell number, increase over baseline (human PBMCs; day 30 in culture, 100 nM MDK-703 or 1 nM IL-7, 5 donors) [fold] | CD8+ Temra expansion (human PBMCs; over 30 days) [fold]
1 | Ac-GWGIPWCTLDPGSLQCAWLGKHGGGGSGGVVCQDWEGVELCWQGG (disulfide 7-16, 32-41) [MDK1472] | 6.47 | 60 |  |  |  | 
2 | IL-7: human IL-7 cytokine (Peprotech) |  |  | 5 | 1300 | 5.2 | 7
